Assay results reported in the OligoGym collection.
Oligonucleotides are written 5' to 3', each unit as a sugar letter and its base; * is a phosphorothioate linkage, no mark a phosphodiester; rarer units and linkages stand in square brackets, end groups in braces. Plain capitals give the bases only. Oligonucleotides are given in HELM: sugar(base)linkage, 5' to 3'; d 2'-deoxyribose, r ribose, m 2'-O-methylribose, p phosphate. ss, as = sense and antisense strand; d = 2'-deoxy (DNA); r = 2'-OH (RNA)

These substances were tested against UBE2D3 (assay: reporter assay of Huesken 2005). Conditions: siRNA.
Note: test concentration or dose not given here.

Substance	normalised inhibition (eCFP-eYFP dual reporter)
RNA1{r(U)p.r(G)p.r(C)p.r(A)p.r(U)p.r(U)p.r(U)p.r(A)p.r(C)p.r(A)p.r(A)p.r(C)p.r(A)p.r(A)p.r(G)p.r(A)p.r(A)p.r(U)p.r(U)p.d(T)p.d(T)}|RNA2{r(A)p.r(A)p.r(U)p.r(U)p.r(C)p.r(U)p.r(U)p.r(G)p.r(U)p.r(U)p.r(G)p.r(U)p.r(A)p.r(A)p.r(A)p.r(U)p.r(G)p.r(C)p.r(A)p.d(A)p.d(C)}$$$RNA1{StrandType:ss}|RNA2{StrandType:as}$	83.3%
RNA1{r(U)p.r(G)p.r(C)p.r(U)p.r(A)p.r(U)p.r(G)p.r(U)p.r(G)p.r(A)p.r(U)p.r(C)p.r(C)p.r(A)p.r(A)p.r(A)p.r(C)p.r(C)p.r(C)p.d(T)p.d(T)}|RNA2{r(G)p.r(G)p.r(G)p.r(U)p.r(U)p.r(U)p.r(G)p.r(G)p.r(A)p.r(U)p.r(C)p.r(A)p.r(C)p.r(A)p.r(U)p.r(A)p.r(G)p.r(C)p.r(A)p.d(G)p.d(T)}$$$RNA1{StrandType:ss}|RNA2{StrandType:as}$	42.2%
RNA1{r(U)p.r(G)p.r(C)p.r(U)p.r(U)p.r(U)p.r(A)p.r(A)p.r(C)p.r(A)p.r(A)p.r(U)p.r(U)p.r(U)p.r(C)p.r(U)p.r(A)p.r(A)p.r(A)p.d(T)p.d(T)}|RNA2{r(U)p.r(U)p.r(U)p.r(A)p.r(G)p.r(A)p.r(A)p.r(A)p.r(U)p.r(U)p.r(G)p.r(U)p.r(U)p.r(A)p.r(A)p.r(A)p.r(G)p.r(C)p.r(A)p.d(G)p.d(G)}$$$RNA1{StrandType:ss}|RNA2{StrandType:as}$	92%
RNA1{r(U)p.r(G)p.r(G)p.r(C)p.r(A)p.r(G)p.r(C)p.r(A)p.r(U)p.r(U)p.r(U)p.r(G)p.r(U)p.r(C)p.r(U)p.r(C)p.r(G)p.r(A)p.r(U)p.d(T)p.d(T)}|RNA2{r(A)p.r(U)p.r(C)p.r(G)p.r(A)p.r(G)p.r(A)p.r(C)p.r(A)p.r(A)p.r(A)p.r(U)p.r(G)p.r(C)p.r(U)p.r(G)p.r(C)p.r(C)p.r(A)p.d(T)p.d(T)}$$$RNA1{StrandType:ss}|RNA2{StrandType:as}$	99.6%
RNA1{r(U)p.r(G)p.r(G)p.r(G)p.r(A)p.r(C)p.r(C)p.r(U)p.r(A)p.r(A)p.r(U)p.r(G)p.r(A)p.r(C)p.r(A)p.r(G)p.r(C)p.r(C)p.r(C)p.d(T)p.d(T)}|RNA2{r(G)p.r(G)p.r(G)p.r(C)p.r(U)p.r(G)p.r(U)p.r(C)p.r(A)p.r(U)p.r(U)p.r(A)p.r(G)p.r(G)p.r(U)p.r(C)p.r(C)p.r(C)p.r(A)p.d(T)p.d(A)}$$$RNA1{StrandType:ss}|RNA2{StrandType:as}$	48.6%
RNA1{r(U)p.r(G)p.r(G)p.r(U)p.r(C)p.r(G)p.r(C)p.r(C)p.r(U)p.r(G)p.r(C)p.r(U)p.r(U)p.r(U)p.r(A)p.r(A)p.r(C)p.r(A)p.r(A)p.d(T)p.d(T)}|RNA2{r(U)p.r(U)p.r(G)p.r(U)p.r(U)p.r(A)p.r(A)p.r(A)p.r(G)p.r(C)p.r(A)p.r(G)p.r(G)p.r(C)p.r(G)p.r(A)p.r(C)p.r(C)p.r(A)p.d(C)p.d(T)}$$$RNA1{StrandType:ss}|RNA2{StrandType:as}$	90.3%
RNA1{r(U)p.r(U)p.r(A)p.r(U)p.r(C)p.r(C)p.r(A)p.r(U)p.r(U)p.r(U)p.r(G)p.r(U)p.r(U)p.r(C)p.r(A)p.r(C)p.r(U)p.r(G)p.r(C)p.d(T)p.d(T)}|RNA2{r(G)p.r(C)p.r(A)p.r(G)p.r(U)p.r(G)p.r(A)p.r(A)p.r(C)p.r(A)p.r(A)p.r(A)p.r(U)p.r(G)p.r(G)p.r(A)p.r(U)p.r(A)p.r(A)p.d(A)p.d(A)}$$$RNA1{StrandType:ss}|RNA2{StrandType:as}$	23.6%
RNA1{r(U)p.r(U)p.r(C)p.r(A)p.r(A)p.r(A)p.r(C)p.r(C)p.r(A)p.r(C)p.r(C)p.r(U)p.r(A)p.r(A)p.r(G)p.r(G)p.r(U)p.r(U)p.r(G)p.d(T)p.d(T)}|RNA2{r(C)p.r(A)p.r(A)p.r(C)p.r(C)p.r(U)p.r(U)p.r(A)p.r(G)p.r(G)p.r(U)p.r(G)p.r(G)p.r(U)p.r(U)p.r(U)p.r(G)p.r(A)p.r(A)p.d(G)p.d(G)}$$$RNA1{StrandType:ss}|RNA2{StrandType:as}$	64.4%
RNA1{r(U)p.r(U)p.r(C)p.r(A)p.r(U)p.r(U)p.r(U)p.r(U)p.r(C)p.r(C)p.r(U)p.r(A)p.r(C)p.r(A)p.r(G)p.r(A)p.r(C)p.r(U)p.r(A)p.d(T)p.d(T)}|RNA2{r(U)p.r(A)p.r(G)p.r(U)p.r(C)p.r(U)p.r(G)p.r(U)p.r(A)p.r(G)p.r(G)p.r(A)p.r(A)p.r(A)p.r(A)p.r(U)p.r(G)p.r(A)p.r(A)p.d(T)p.d(T)}$$$RNA1{StrandType:ss}|RNA2{StrandType:as}$	85%
RNA1{r(U)p.r(U)p.r(C)p.r(U)p.r(G)p.r(C)p.r(A)p.r(G)p.r(G)p.r(U)p.r(C)p.r(C)p.r(A)p.r(G)p.r(U)p.r(U)p.r(G)p.r(G)p.r(G)p.d(T)p.d(T)}|RNA2{r(C)p.r(C)p.r(C)p.r(A)p.r(A)p.r(C)p.r(U)p.r(G)p.r(G)p.r(A)p.r(C)p.r(C)p.r(U)p.r(G)p.r(C)p.r(A)p.r(G)p.r(A)p.r(A)p.d(C)p.d(A)}$$$RNA1{StrandType:ss}|RNA2{StrandType:as}$	50%
RNA1{r(U)p.r(U)p.r(G)p.r(C)p.r(A)p.r(U)p.r(U)p.r(U)p.r(A)p.r(C)p.r(A)p.r(A)p.r(C)p.r(A)p.r(A)p.r(G)p.r(A)p.r(A)p.r(U)p.d(T)p.d(T)}|RNA2{r(A)p.r(U)p.r(U)p.r(C)p.r(U)p.r(U)p.r(G)p.r(U)p.r(U)p.r(G)p.r(U)p.r(A)p.r(A)p.r(A)p.r(U)p.r(G)p.r(C)p.r(A)p.r(A)p.d(C)p.d(C)}$$$RNA1{StrandType:ss}|RNA2{StrandType:as}$	68.4%
RNA1{r(U)p.r(U)p.r(U)p.r(A)p.r(C)p.r(A)p.r(A)p.r(C)p.r(A)p.r(A)p.r(G)p.r(A)p.r(A)p.r(U)p.r(U)p.r(U)p.r(A)p.r(U)p.r(C)p.d(T)p.d(T)}|RNA2{r(G)p.r(A)p.r(U)p.r(A)p.r(A)p.r(A)p.r(U)p.r(U)p.r(C)p.r(U)p.r(U)p.r(G)p.r(U)p.r(U)p.r(G)p.r(U)p.r(A)p.r(A)p.r(A)p.d(T)p.d(G)}$$$RNA1{StrandType:ss}|RNA2{StrandType:as}$	48.8%
RNA1{r(U)p.r(U)p.r(U)p.r(C)p.r(A)p.r(U)p.r(U)p.r(G)p.r(G)p.r(C)p.r(A)p.r(A)p.r(G)p.r(C)p.r(C)p.r(A)p.r(C)p.r(A)p.r(A)p.d(T)p.d(T)}|RNA2{r(U)p.r(U)p.r(G)p.r(U)p.r(G)p.r(G)p.r(C)p.r(U)p.r(U)p.r(G)p.r(C)p.r(C)p.r(A)p.r(A)p.r(U)p.r(G)p.r(A)p.r(A)p.r(A)p.d(C)p.d(A)}$$$RNA1{StrandType:ss}|RNA2{StrandType:as}$	85.3%
RNA1{r(U)p.r(U)p.r(U)p.r(C)p.r(U)p.r(A)p.r(A)p.r(A)p.r(G)p.r(U)p.r(U)p.r(C)p.r(U)p.r(U)p.r(U)p.r(U)p.r(A)p.r(U)p.r(C)p.d(T)p.d(T)}|RNA2{r(G)p.r(A)p.r(U)p.r(A)p.r(A)p.r(A)p.r(A)p.r(G)p.r(A)p.r(A)p.r(C)p.r(U)p.r(U)p.r(U)p.r(A)p.r(G)p.r(A)p.r(A)p.r(A)p.d(T)p.d(T)}$$$RNA1{StrandType:ss}|RNA2{StrandType:as}$	30.6%

The substances below were run against UBE2T (assay: reporter assay of Huesken 2005). Conditions: siRNA.

Substance	normalised inhibition (eCFP-eYFP dual reporter)
sense rArArCrCrCrArArCrCrCrUrGrArUrGrArCrCrCdTdT / antisense rGrGrGrUrCrArUrCrArGrGrGrUrUrGrGrGrUrUdCdT	52.7%
sense rArArGrArGrArUrGrCrUrUrGrArUrArArUrCrUdTdT / antisense rArGrArUrUrArUrCrArArGrCrArUrCrUrCrUrUdCdC	99.4%
sense rArArGrGrArUrUrUrGrUrCrUrGrGrArUrGrUrUdTdT / antisense rArArCrArUrCrCrArGrArCrArArArUrCrCrUrUdCdC	79.9%
sense rArArGrGrUrGrCrUrUrGrGrArGrArCrCrArUrCdTdT / antisense rGrArUrGrGrUrCrUrCrCrArArGrCrArCrCrUrUdTdT	60.5%
sense rArArGrUrUrArUrCrArUrUrCrCrUrGrArGrArGdTdT / antisense rCrUrCrUrCrArGrGrArArUrGrArUrArArCrUrUdCdT	79.4%
sense rArArUrGrCrCrArGrArCrArGrUrGrGrArCrArGdTdT / antisense rCrUrGrUrCrCrArCrUrGrUrCrUrGrGrCrArUrUdCdT	77.5%
sense rArCrArCrArCrCrUrUrArUrGrArGrArArArGrGdTdT / antisense rCrCrUrUrUrCrUrCrArUrArArGrGrUrGrUrGrUdTdG	74.7%
sense rArCrArUrArUrCrCrUrCrArGrArArUrUrUrArAdTdT / antisense rUrUrArArArUrUrCrUrGrArGrGrArUrArUrGrUdCdA	114%
sense rArCrCrCrUrGrArUrGrArCrCrCrGrCrUrCrArUdTdT / antisense rArUrGrArGrCrGrGrGrUrCrArUrCrArGrGrGrUdTdG	101%
sense rArCrCrUrCrCrUrCrArGrArUrCrCrGrArUrUrUdTdT / antisense rArArArUrCrGrGrArUrCrUrGrArGrGrArGrGrUdTdC	100%
sense rArGrArArUrGrCrCrArGrArCrArGrUrGrGrArCdTdT / antisense rGrUrCrCrArCrUrGrUrCrUrGrGrCrArUrUrCrUdTdG	95%
sense rArGrCrUrGrCrUrCrArUrGrUrCrArGrArArCrCdTdT / antisense rGrGrUrUrCrUrGrArCrArUrGrArGrCrArGrCrUdGdA	79.4%
sense rArGrGrArArGrArGrArUrGrCrUrUrGrArUrArAdTdT / antisense rUrUrArUrCrArArGrCrArUrCrUrCrUrUrCrCrUdCdA	113%
sense rArGrGrUrArCrCrCrArUrUrUrGrArArCrCrUrCdTdT / antisense rGrArGrGrUrUrCrArArArUrGrGrGrUrArCrCrUdCdT	63.1%
sense rArGrGrUrGrCrUrUrGrGrArGrArCrCrArUrCrCdTdT / antisense rGrGrArUrGrGrUrCrUrCrCrArArGrCrArCrCrUdTdT	65.6%
sense rArGrUrArGrGrCrArUrArGrArArArArGrArArAdTdT / antisense rUrUrUrCrUrUrUrUrCrUrArUrGrCrCrUrArCrUdAdG	102%
